Measurements published in US10675267B2, “Methods for detection and eradication of myeloid leukemia stem cells” (priority 2015, dated 2020).
Entries after “also recorded” stand apart in the source; their conditions may differ.

Assays:
[1] = test system: human CD34+ cell fractions from spleens and bone marrow of AML-37 engrafted mice; test: RNA-Seq of human CD34+ cells pooled from spleens and bone marrow of treated sAML-engrafted mice; format: in vivo
Method: In vivo molecular response to therapeutic splicing modulation. RNA-seq analysis was performed in human CD34+ cell fractions isolated from spleens and bone marrow of 17S-FD-895-treated sAML-engrafted mice. […] The data are set forth in Table 4 following, which formed the basis for calculation of FIG. 17G.
Xenograft sequencing data of 2×150 bp paired end reads were trimmed using cutadapt 1.8.1, aligned using STAR 2.5.0b against the GRCh37 reference FASTA sequence with the Ensembl GRCh37.75 GTF as a splice junction source. Strandedness was inferred using modulate “infer_experiment.py” from the RSeQC package (Wang et al., 2012). Then, transcripts were quantified using Cufflinks v2.2.1 (Trapnell et al., 2010) against the Ensembl GRCh37.75 GTF reference with bias correction against the GRCh37 reference FASTA. This yielded Cufflinks FPKM values. Isoforms sharing gene names were summed to yield gene FPKMs. FPKM values were transformed to generate log 2(FPKM+1) for all transcripts in the sAML isoform signature (FIGS. 11D, 11E, 12D), comparing vehicle versus 10 mg/kg treatment groups for spleen and bone marrow. Then, a heatmap was generated using all transcripts showing a L2FC>0.5 in both tissues, occurring in the opposite direction of the L2FC transcript expression values in sAML versus normal age-matched controls (i.e. L2FC>1 in sAML, L2FC<−0.5 in 10 mg/kg-treated spleen and bone marrow).
Gene expression data in FPKM was submitted to GSEA to determine significant KEGG pathways, and enrichment plots describing ranked gene expression in those pathways. Additional analyses were performed using custom gene sets including genes associated with the top differentially expressed transcript signatures in aged (“aged up”) versus young (“young up”) HPC and sAML (“sAML up”) versus aged (“aged up”) HPC (FIGS. 11D, 11E, 12D). We acknowledge our use of the gene set enrichment analysis, GSEA software, and Molecular Signature Database (see website: broad.mit.edu). […]

[2] = test system: AML LSC (CD34+ cells from AML primary samples); test: SL/M2 stromal co-culture with colony formation (survival) and replating (self-renewal) assays, AML; format: cell-based, human
Method: In hypothesis-driven experiments, the splicing modulatory compound 17S-FD-895 was tested to determine efficacy in altering splicing activity in cell lines, and to evaluate effects on AML LSC survival and self-renewal capacity in humanized bone marrow stromal co-cultures and in PRIMAGRAFT™ AML LSC models. Cell culture experiments were performed using 293T and sAML (MOLM-13) cell lines, and SL and M2 bone marrow stromal cell lines. Animal studies were performed using immunocompromised Rag2−/−γc−/−[20] or NOD/SCID-IL2RG mice (Jackson Laboratory, Bar Harbor, Me.). Primary AML and normal control samples were used in in vitro hematopoietic stem and progenitor assays after bone marrow stromal co-culture and treatment with splicing modulatory compounds (FD-895 or 17S-FD-895) or vehicle control (DMSO). Colony formation potential and self-renewal capacity were assessed by counting colony numbers (survival) after two weeks of growth in semi-solid (methylcellulose) media, and subsequent replating capacity (self-renewal) was assessed after transfer to fresh methylcellulose for an additional two weeks of culture. Three primary AML samples were utilized to establish PRIMAGRAFT™ models in immunocompromised mice, and mice engrafted with cells from two of these models (AML-37 and AML-08) were treated with 17S-FD-895 or vehicle (DMSO) to evaluate changes in AML LSC survival and self-renewal capacity in vivo. Data were collected by flow cytometry and qRT-PCR analysis of CD34-selected human LSC-enriched cells from engrafted mice.
Bone marrow SL/M2 monolayers were established from freshly inactivated (irradiated) cells and then human CD34^+ cells selected from AML primary samples (n=8) and normal controls (CD34^+ cells from cord blood, CB, n=6; or aged bone marrow, n=6) were added. Survival and self-renewal of the CD34+ cells were investigated by methylcellulose-based colony and replating assays. Two SF3B1-targeted splicing modulators, FD-895 or 17S-FD-895, were added at the initiation of co-culture at concentrations ranging from 0.1 to 10 μM.
Mouse bone marrow stromal cell lines (SL and M2 mycoplasma-free authenticated cells obtained from ATCC) expressing human interleukin-3 (IL-3), stem cell factor (SCF) and granulocyte-colony stimulating factor (G-CSF), which support erythroid and myeloid cell expansion and differentiation, were maintained under standard culture conditions, as previously described. Briefly, SL cells were grown in complete medium containing DMEM (Corning), 10% FBS, 1% Glutamax, and 1% penicillin-streptomycin (Life Technologies), while M2 cells were grown in complete medium containing RPMI, 10% FBS, 1% Glutamax, and 1% penicillin-streptomycin (all from Life Technologies). Every four passages, cells were selected by addition of G418 and hygromycin to the culture media for one passage (3-4 days), to maintain human cytokine expression. All cell lines were maintained in T-25 or T-75 culture flasks and were passaged at dilutions of 1:5-1:10 every 2-4 days. Low passage aliquots of cells were thawed every two months to ensure consistency of experiments.
As previously described (Goff et al., 2013), humanized bone marrow SL/M2 monolayers were inactivated (irradiated) and then human CD34^+ cells selected from AML primary samples and normal controls were added for two weeks of co-culture, followed by methylcellulose-based colony and replating assays. FD-895 or 17S-FD-895 were added at the initiation of co-culture, with DMSO as a vehicle control.
Mouse bone marrow stromal cell lines (SL and M2 mycoplasma-free authenticated cells obtained from ATCC) expressing human interleukin-3 (IL-3), stem cell factor (SCF) and granulocyte-colony stimulating factor (G-CSF), which support erythroid and myeloid cell expansion and differentiation (Hogge et al., 1996), were maintained under standard culture conditions, as previously described (Goff et al., 2013). […]

[3] = Villa et al., Org Lett 2012; cited from earlier work
[4] = two weeks SL/M2 co-culture, 0.1-10 μM, versus DMSO

## CC[C@H](OC)[C@@H](C)[C@H]1O[C@@H]1[C@@H](O)[C@H](C)/C=C/C=C(\C)[C@H]1OC(=O)C[C@H](O)CC[C@@](C)(O)[C@@H](OC(C)=O)/C=C/[C@@H]1C (stereo in doubt) [Formula 17S-FD-895, 17S-FD-895]
[1]; 10 mg/kg treated mice versus vehicle
  GSEA of the “aged up” signature: enriched
[1]; higher treatment doses, bone marrow and spleen
  expression of sAML-specific transcripts STAT6-016 and ITGB2-201: reverted to a normal expression pattern
[1]; spleen and bone marrow, after treatment
  PTK2B transcripts: decreased
[2]; 1 μM dose, p=0.020
  AML LSC survival compared with FD-895: significantly lower
[2]; 1 μM, separate patient samples, versus normal controls
  LSC survival and self-renewal, validation cohort: Reduced AML LSC survival and self-renewal compared to normal controls
[2]; 0.1 and 1 μM doses, p=0.001
  AML LSC self-renewal compared with FD-895: significantly lower
[2]; LSC assays
  functional potency compared with FD-895: greater functional potency than FD-895
[2]; LSC assays, stromal co-culture
  therapeutic index (AML LSC versus normal HSPC): favorable therapeutic index
[2]; [4]
  AML LSC self-renewal (colony replating): dose-dependent reduction; also recorded: reduced AML LSC self-renewal
  AML LSC survival (colony formation): dose-dependent reduction; also recorded: reduced AML LSC survival
[3]
  activity over FD-895: 25 fold
